Reference: ChEMBL document CHEMBL1914410, “Discovery of a series of potent and selective human H4 antagonists using ligand efficiency and libraries to explore structure-activity relationship (SAR)” (Bioorg Med Chem Lett, 2011)
Each block holds one compound with its values, some of them ahead of it.

Experiments:
Histamine H4 receptor [1] = biological target: T1, Histamine H4 receptor (Homo sapiens, UniProt Q9H3N8); assay: Displacement of [3H]histamine from human histamine H4 receptor expressed in CHO cells after 90 mins by scintillation counting technique; format: cell-based
Histamine H3 receptor [2] = biological target: T2, Histamine H3 receptor (Homo sapiens, UniProt Q9Y5N1); assay: Antagonist activity at histamine H3 receptor; format: functional
T2 sequence (Q9Y5N1 whole entry): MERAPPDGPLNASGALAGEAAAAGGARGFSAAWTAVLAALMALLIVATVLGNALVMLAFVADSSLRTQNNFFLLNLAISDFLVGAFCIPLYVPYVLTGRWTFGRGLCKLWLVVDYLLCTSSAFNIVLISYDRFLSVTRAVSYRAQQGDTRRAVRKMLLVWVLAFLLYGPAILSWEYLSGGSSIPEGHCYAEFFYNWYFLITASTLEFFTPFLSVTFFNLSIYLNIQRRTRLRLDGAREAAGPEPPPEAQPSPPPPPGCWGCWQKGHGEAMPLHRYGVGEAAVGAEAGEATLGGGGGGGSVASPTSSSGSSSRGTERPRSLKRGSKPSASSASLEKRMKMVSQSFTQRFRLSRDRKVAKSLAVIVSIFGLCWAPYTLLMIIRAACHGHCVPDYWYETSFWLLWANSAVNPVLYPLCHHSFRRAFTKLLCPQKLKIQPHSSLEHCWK

[3] = Distribution coefficient, log D of the compound at pH 7.4; format: physicochemical; details: octanol/water
Histamine H2 receptor = Histamine H2 receptor (Homo sapiens, UniProt P25021); assay: Antagonist activity at histamine H2 receptor; format: functional
Histamine H2 receptor, sequence (P25021 whole entry): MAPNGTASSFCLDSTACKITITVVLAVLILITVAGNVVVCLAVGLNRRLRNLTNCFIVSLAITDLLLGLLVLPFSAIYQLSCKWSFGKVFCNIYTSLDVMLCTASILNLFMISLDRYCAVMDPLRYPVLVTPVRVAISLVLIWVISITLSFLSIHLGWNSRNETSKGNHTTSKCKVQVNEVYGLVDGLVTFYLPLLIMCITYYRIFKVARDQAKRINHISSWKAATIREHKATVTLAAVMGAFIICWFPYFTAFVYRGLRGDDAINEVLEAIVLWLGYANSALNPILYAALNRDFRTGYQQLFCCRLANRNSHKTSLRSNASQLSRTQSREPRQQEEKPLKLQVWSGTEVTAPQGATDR

Histamine H1 receptor = Histamine H1 receptor (Homo sapiens, UniProt P35367); assay: Antagonist activity at histamine H1 receptor; format: functional
Histamine H1 receptor, sequence (P35367 whole entry): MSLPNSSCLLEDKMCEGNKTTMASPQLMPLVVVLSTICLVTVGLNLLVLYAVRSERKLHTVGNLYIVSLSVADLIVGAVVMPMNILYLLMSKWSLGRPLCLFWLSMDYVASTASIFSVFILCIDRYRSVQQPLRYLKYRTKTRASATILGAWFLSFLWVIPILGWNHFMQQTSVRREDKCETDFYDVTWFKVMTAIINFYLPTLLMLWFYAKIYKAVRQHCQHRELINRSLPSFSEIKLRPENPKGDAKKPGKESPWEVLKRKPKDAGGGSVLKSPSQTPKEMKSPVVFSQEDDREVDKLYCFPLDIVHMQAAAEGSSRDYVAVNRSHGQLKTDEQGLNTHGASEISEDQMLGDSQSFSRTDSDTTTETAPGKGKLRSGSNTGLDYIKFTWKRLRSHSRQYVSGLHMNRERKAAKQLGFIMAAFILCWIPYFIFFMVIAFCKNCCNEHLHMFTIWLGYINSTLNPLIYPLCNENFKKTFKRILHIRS

Histamine H4 receptor [4] = biological target: T1, Histamine H4 receptor; assay: Antagonist activity at human histamine H4 receptor by functional assay
Histamine H3 receptor [5] = biological target: T2, Histamine H3 receptor; assay: Binding affinity to human histamine H3 receptor
Histamine H4 receptor [6] = biological target: T1, Histamine H4 receptor; assay: Antagonist activity at human histamine H4 receptor at 15 uM by functional assay; parameters: scale not given: the % may be the effect or the level left
Histamine H3 receptor [7] = biological target: T2, Histamine H3 receptor; assay: Binding affinity to histamine H3 receptor
[8] = Metabolic stability in human liver microsomes; format: ADME, Microsome; details: read-out: Stability
[9] = Metabolic stability in rat liver microsomes; format: ADME, Microsome; details: read-out: Stability
Liver microsomes = assay: Intrinsic clearance in rat liver microsomes; format: ADME, Microsome

Ki (Histamine H4 receptor [1]): 593 nM
SMILES: CN1CC[C@H](Nc2cc(NCCC(C)(C)C)ncn2)C1

Ki (Histamine H3 receptor [2]): 8220 nM
logD [3]: 0.6
Ki (Histamine H2 receptor): 8820 nM
Ki (Histamine H1 receptor): > 40000 nM
Ki (Histamine H4 receptor [4]): 572 nM
SMILES: CC(C)(C)CCNc1cc(N[C@H]2CCNC2)ncn1

SMILES: Cc1ccc(C#N)c(N2CC3CN(C)CC3C2)n1 (stereo not given)
logD [3]: -0.86
Ki (Histamine H4 receptor [1]): 930 nM

logD [3]: 1.09
Ki (Histamine H3 receptor [5]): 54 nM
SMILES: CN(C)[C@@H]1CCN(c2cc(NCC(C)(C)C)ncn2)C1

Activity (Histamine H4 receptor [6]): 57%
Ki (Histamine H4 receptor [1]): 34900 nM
SMILES: CN1CCN(c2cc(C(=O)NCc3cccc(C(F)(F)F)c3)ncn2)CC1

Ki (Histamine H4 receptor [1]): 207 nM
SMILES: CN1CCN(c2cc(NCc3ccccc3)ncn2)CC1

Ki (Histamine H4 receptor [1]): 212 nM
SMILES: CN1CCN(c2cc(NC3Cc4ccccc4C3)ncn2)CC1

Ki (Histamine H3 receptor [2]): 13600 nM
SMILES: CC(C)(C)CCNc1cc(N[C@@H]2CCNC2)ncn1

SMILES: CN1CCN(c2cc(NCC(C)(C)C)ncn2)CC1
logD [3]: 1.75
Ki (Histamine H3 receptor [5]): 825 nM

Ki (Histamine H3 receptor [7]): 646 nM
logD [3]: 2.6
Ki (Histamine H2 receptor): 3560 nM
Ki (Histamine H1 receptor): > 10000 nM
microsomal CLint [8]: 16 µL/min/mg
microsomal CLint [9]: 147 µL/min/mg
Ki (Histamine H4 receptor [4]): 37 nM
SMILES: CN1CCN(c2cc(NCCC(C)(C)C)ncn2)CC1

SMILES: CN1CCN(c2cnc3ccccc3n2)CC1
logD [3]: 1.76
Ki (Histamine H4 receptor [1]): 1060 nM

logD [3]: 1.4
SMILES: CC(C)(C)CCNc1cc(N2CCNCC2)ncn1

Ki (Histamine H4 receptor [1]; cho): 20000 nM
SMILES: COCc1ccc(CN2CC[C@H](Nc3cc(NCCC(C)(C)C)ncn3)C2)o1

Ki (Histamine H4 receptor [1]): 860 nM
SMILES: CN1CCN(c2cc(N3[C@@H]4CCC[C@@H]3C4)ncn2)CC1

Ki (Histamine H4 receptor [1]; cho): 20000 nM
SMILES: CC(C)(C)CCNc1cc(N[C@H]2CCN(Cc3cccc(F)c3O)C2)ncn1

Activity (Histamine H4 receptor [6]): 65%
Ki (Histamine H4 receptor [1]): 1600 nM
Ki (Histamine H4 receptor [4]): > 2000 nM
SMILES: COc1ccccc1Cn1ccc(NCCc2cnc[nH]2)nc1=O

CL (Liver microsomes): 143 µL/min
SMILES: CN(C)CCNc1cc(NCC2CC2)ncn1

logD [3]: 3.84
Ki (Histamine H4 receptor [1]): 601 nM
SMILES: CC(C)(C)CCNc1cc(N2CCN(C3CCCCC3)CC2)ncn1

logD [3]: 0.96
SMILES: CN1CCCN(c2cc(NCC(C)(C)C)ncn2)CC1

Activity (Histamine H4 receptor [6]): 73%
Ki (Histamine H4 receptor [1]): 2110 nM
SMILES: CC(C)(C)CCNc1cc(NC2CCN(Cc3ccc(CO)o3)C2)ncn1 (stereo not given)

Ki (Histamine H4 receptor [1]): 47.7 nM
Ki (Histamine H4 receptor [4]): 39.6 nM
SMILES: CN1CCN(C(=O)c2nc3cc(Cl)ccc3[nH]2)CC1

Ki (Histamine H3 receptor [2]): 2500 nM
Activity (Histamine H4 receptor [6]): 60%
Ki (Histamine H4 receptor [1]): 3240 nM
Ki (Histamine H4 receptor [4]): > 2000 nM
SMILES: COc1cccc(C(O)(COc2ccccc2C)CN2CCN(C)CC2)c1 (stereo not given)
